In US20030083271A1, “Topoisomerase I selective cytotoxic sugar derivatives of indolopyrrolocarbazoles” (priority 2001, published 2003):

Tests used:
[1] = test system: P388 murine leukemia cells; assay: In vitro cell-based cytotoxicity, parental P388 cells; conditions: Mus musculus, 72 h, median cytotoxic concentration, 3 days continuous exposure
Method in brief: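 P388 cells plated at 8,000 cells/well, compounds serially diluted 24 h later and incubated 72 h at 37° C. Viability by MTS (333 μg/ml final) with phenazine methosulfate (25 μM final), absorbance at 492 nm; IC50 is concentration reducing absorbance to 50% of untreated control.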

[2] = test system: P388/CPT45 cells; assay: Cytotoxicity in camptothecin-resistant P388/CPT45 cells relative to parental P388 (selectivity index R/S); assay type: cell-based, murine; conditions: IC50 P388/CPT45 cells divided by IC50 parental P388 cells
Method in brief: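 Murine P388 leukemia cells and their camptothecin-resistant P388/CPT45 subline were plated at 8,000 cells/well and exposed to serial compound dilutions for 72 h at 37 °C. Viability was read by MTS/PMS reduction at 492 nm, with IC50 taken against untreated cells. R/S is the P388/CPT45 IC50 divided by the parental P388 IC50.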

Compound | IC50 [1] [nM] | Selectivity Index R/S [2]
O=C1NC(=O)c2c1c1c3cc(F)c(F)cc3sc1c1c2c2cc(F)c(F)cc2n1[C@@H]1O[C@H](CF)[C@@H](F)[C@H](O)[C@H]1O [Example 26, 12-[4,6-Difluoro-4,6-dideoxy-β-D-glucopyranosyl]-2,3,9,10-tetrafluoro-5H, 13H-benzo[b]thienyl[2,3-a]pyrrolo[3,4-c]carbazole-5,7(6H)-dione] | 11 | 387.8
O=C1NC(=O)c2c1c1c3cc(F)c(F)cc3sc1c1c2c2cc(F)c(F)cc2n1[C@@H]1O[C@H](CO)[C@@H](F)[C@H](O)[C@H]1O [Example 33, 12-[4-Deoxy-4-fluoro-β-D-glucopyranosyl]-2,3,9,10-tetrafluoro-5H,13H-benzo[b]thienyl[2,3-a]pyrrolo[3,4-c]carbazole-5,7(6H)-dione] | < 3 | >1657.6
O=C1NC(=O)c2c1c1c3cc(F)ccc3[nH]c1c1c2c2cc(F)ccc2n1[C@@H]1O[C@H](CO)[C@@H](F)[C@H](O)[C@H]1O [Example 24, 12-[4-Deoxy-4-fluoro-β-D-glucopyranosyl]-3,9-difluoro-12,13-dihydro-5H-indolo[2,3-a]pyrrolo[3,4-c]carbazole-5,7(6H)-dione] | 2 | 379.0
O=C1NC(=O)c2c1c1c3cc(F)c(F)cc3sc1c1c2c2cc(F)c(F)cc2n1[C@@H]1O[C@H](CF)C[C@H](O)[C@H]1O [Example 9, 12-[4,6-Dideoxy-6-fluoro-β-D-glucopyranosyl]-2,3,9,10-tetrafluoro-5H, 13H-benzo[b]thienyl[2,3-a]pyrrolo[3,4-c]carbazole-5,7(6H)-dione] | 35 | 120.2
O=C1NC(=O)c2c1c1c3cc(F)ccc3[nH]c1c1c2c2cc(F)ccc2n1[C@@H]1O[C@H](CF)[C@@H](F)[C@H](O)[C@H]1O [Example 27] | 4 | 448.4
